PubChem BioAssay AID1259411 (Chemical Carcinogenesis Research Information System (CCRIS), 2018)
Calls of active or inactive are those of the source. How the calls were made is not given here.

System: rodent carcinogenicity bioassays, tumor incidence
Test: CCRIS carcinogenicity studies
In short: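 Archive of carcinogenicity, mutagenicity, tumor promotion and tumor inhibition results drawn from journals, NCI reports and other sources, expert-reviewed; covers 1985-2011 and is no longer updated.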

In the case of `C=CC(=C)Cl`, the carcinogen call (Species: HAMSTER, Strain/Sex: SYRIAN/FEMALE, Route: INHALATION, Dose: 0, 10, 50 PPM 6 HR/D 5 D/WK FOR 18 MO (STUDY DURATION: 18 MO), Dose: 0, 10, 50 PPM 6 HR/D 5 D/WK FOR 18 MO (STUDY DURATION: 18 MO)) is reported as “inactive; negative”, the carcinogen call (Species: HAMSTER, Strain/Sex: SYRIAN/MALE, Route: INHALATION, Dose: 0, 10, 50 PPM 6HR/D 5 D/WK FOR 18 MO (STUDY DURATION: 18 MO), Dose: 0, 10, 50 PPM 6HR/D 5 D/WK FOR 18 MO (STUDY DURATION: 18 MO)) is reported as “inactive; negative” and the carcinogen call (Species: MOUSE, Strain/Sex: ALBINO/MALE, FEMALE, Route: INHALATION, Dose: 0, 2.9, 19.18, 189 MG/M3 4 HR/D 6 D/WK FOR 7 MO (STUDY DURATION: 8 MO), Dose: 0, 2.9, 19.18, 189 MG/M3 4 HR/D 6 D/WK FOR 7 MO (STUDY DURATION: 8 MO), Tumor Site: Type of Lesion: LUNG: TUMOR) is reported as “active; positive”. The carcinogen call (Species: MOUSE, Strain/Sex: B6C3F1/FEMALE, Route: INHALATION, Dose: 0, 12.8, 32, 80 PPM 6 HR/D 5 D/WK FOR 105 WK (STUDY DURATION: 106 WK), Dose: 0, 12.8, 32, 80 PPM 6 HR/D 5 D/WK FOR 105 WK (STUDY DURATION: 106 WK), Tumor Site: Type of Lesion: LUNG: ALVEOLAR/BRONCHIOLAR ADENOMA, ALVEOLAR/BRONCHIOLAR CARCINOMA, CIRCULATORY SYSTEM: HEMANGIOMA, HEMANGIOSARCOMA, HAR, Tumor Site: Type of Lesion: LUNG: ALVEOLAR/BRONCHIOLAR ADENOMA, ALVEOLAR/BRONCHIOLAR CARCINOMA, CIRCULATORY SYSTEM: HEMANGIOMA, HEMANGIOSARCOMA, HAR) was “active; positive”, the carcinogen call (Species: MOUSE, Strain/Sex: B6C3F1/MALE, Route: INHALATION, Dose: 0, 12.8, 32, 80 PPM 6 HR/D 5 D/WK FOR 105 WK (STUDY DURATION: 106 WK), Dose: 0, 12.8, 32, 80 PPM 6 HR/D 5 D/WK FOR 105 WK (STUDY DURATION: 106 WK), Tumor Site: Type of Lesion: LUNG: ALVEOLAR/BRONCHIOLAR ADENOMA, ALVEOLAR/BRONCHIOLAR CARCINOMA, CIRCULATORY SYSTEM: HEMANGIOSARCOMA, HEMANGIOSARCOMA) was “active; positive” and the carcinogen call (Species: RAT, Strain/Sex: F344/FEMALE, Route: INHALATION, Dose: 0, 12.8, 32, 80 PPM 6 HR/D 5 D/WK FOR 105 WK (STUDY DURATION: 106 WK), Dose: 0, 12.8, 32, 80 PPM 6 HR/D 5 D/WK FOR 105 WK (STUDY DURATION: 106 WK), Tumor Site: Type of Lesion: ORAL CAVITY: SQUAMOUS CELL PAPILLOMA, SQUAMOUS CELL PAPILLOMA OR CARCINOMA, THYROID GLAND: FOLLICULAR CELL ADENOMA OR CA) was “active; positive”. For the same molecule, the carcinogen call (Species: RAT, Strain/Sex: F344/MALE, Route: INHALATION, Dose: 0, 12.8, 32, 80 PPM 6 HR/D 5 D/WK FOR 105 WK (STUDY DURATION: 106 WK), Dose: 0, 12.8, 32, 80 PPM 6 HR/D 5 D/WK FOR 105 WK (STUDY DURATION: 106 WK), Tumor Site: Type of Lesion: ORAL CAVITY: SQUAMOUS CELL PAPILLOMA, SQUAMOUS PAPILLOMA OR CARCINOMA, THYROID GLAND: FOLLICULAR CELL ADENOMA OR CARCINO) was “active; positive”, the carcinogen call (Species: RAT, Strain/Sex: WISTAR/FEMALE, Route: INHALATION, Dose: 0, 10, 50 PPM 6 HR/D 5D/WK FOR 24 MO AT 72 WK 73 FEMALE RATS IN LOW DOSE GROUP DIED DUE TO MALFUNCTION IN EXPOSURE APPAR, Dose: 0, 10, 50 PPM 6 HR/D 5D/WK FOR 24 MO AT 72 WK 73 FEMALE RATS IN LOW DOSE GROUP DIED DUE TO MALFUNCTION IN EXPOSURE APPAR) was “inactive; negative” and the carcinogen call (Species: RAT, Strain/Sex: WISTAR/MALE, Route: INHALATION, Dose: 0, 10, 50 PPM 6 HR/D 5D/WK FOR 24 MO AT 72 WK 82 MALE RATS IN LOW DOSE GROUP DIED DUE TO MALFUNCTION IN EXPOSURE APPARAT, Dose: 0, 10, 50 PPM 6 HR/D 5D/WK FOR 24 MO AT 72 WK 82 MALE RATS IN LOW DOSE GROUP DIED DUE TO MALFUNCTION IN EXPOSURE APPARAT) was “inactive; negative”.
`Cc1c(N(C)CS(=O)(=O)O)c(=O)n(-c2ccccc2)n1C` was tested, and the carcinogen call (Species: MOUSE, Strain/Sex: B6C3F1/FEMALE, Route: ORAL, Dose: 0, 0.25, 1% IN DRINKING WATER FOR 78 WK (STUDY DURATION: 86 WK), Dose: 0, 0.25, 1% IN DRINKING WATER FOR 78 WK (STUDY DURATION: 86 WK), Tumor Site: Type of Lesion: LIVER: ADENOMA) was “active; positive”, the carcinogen call (Species: MOUSE, Strain/Sex: B6C3F1/MALE, Route: ORAL, Dose: 0, 0.125, 0.5% IN DRINKING WATER FOR 78 WK (STUDY DURATION: 86 WK), Dose: 0, 0.125, 0.5% IN DRINKING WATER FOR 78 WK (STUDY DURATION: 86 WK), Tumor Site: Type of Lesion: LIVER: ADENOMA) was “active; positive” and the carcinogen call (Species: RAT, Strain/Sex: F344/MALE, Route: ORAL, Dose: 0.4% IN DRINKING WATER FOR 72 WK (STUDY DURATION: 83 WK)) was “inactive; negative”. For the same molecule, the carcinogen call (Species: RAT, Strain/Sex: WISTAR/FEMALE, Route: ORAL, Dose: 0, 1000, 3000 PPM IN DIET FOR 24 MO (STUDY DURATION: 30 MO), Dose: 0, 1000, 3000 PPM IN DIET FOR 24 MO (STUDY DURATION: 30 MO)) was “inactive; negative” and the carcinogen call (Species: RAT, Strain/Sex: WISTAR/MALE, Route: ORAL, Dose: 0, 1000, 3000 PPM IN DIET FOR 24 MO (STUDY DURATION: 30 MO), Dose: 0, 1000, 3000 PPM IN DIET FOR 24 MO (STUDY DURATION: 30 MO)) was “inactive; negative”.
In the case of `O=S(=O)([O-])[O-].[O]=[V+2]`, the carcinogen call (Species: MOUSE, Strain/Sex: SWISS/FEMALE, Route: ORAL, Dose: 0, 5 PPM IN DRINKING WATER FOR DURATION OF STUDY (STUDY DURATION: LIFE SPAN)) is reported as “inactive; negative” and the carcinogen call (Species: MOUSE, Strain/Sex: SWISS/MALE, Route: ORAL, Dose: 0, 5 PPM IN DRINKING WATER FOR DURATION OF STUDY (STUDY DURATION: LIFE SPAN)) is reported as “inactive; negative”.
`CC=O` was tested, and the carcinogen call (Species: RAT, Strain/Sex: WISTAR/FEMALE, Route: INHALATION, Dose: 0, 750, 1500, 3000 PPM 6 HR/D 5 D/WK AFTER 4 MO HIGH DOSE REDUCED TO 2150 PPM THEN 1500 PPM AT 6 MO AND 1000 PPM AT 12 M, Dose: 0, 750, 1500, 3000 PPM 6 HR/D 5 D/WK AFTER 4 MO HIGH DOSE REDUCED TO 2150 PPM THEN 1500 PPM AT 6 MO AND 1000 PPM AT 12 M, Tumor Site: Type of Lesion: NASAL CAVITY: TUMOR) was “active; positive” and the carcinogen call (Species: RAT, Strain/Sex: WISTAR/MALE, Route: INHALATION, Dose: 0, 750, 1500, 3000 PPM 6 HR/D 5 D/WK AFTER 4 MO HIGH DOSE REDUCED TO 2150 PPM THEN 1500 PPM AT 6 MO AND 1000 PPM AT 12 M, Dose: 0, 750, 1500, 3000 PPM 6 HR/D 5 D/WK AFTER 4 MO HIGH DOSE REDUCED TO 2150 PPM THEN 1500 PPM AT 6 MO AND 1000 PPM AT 12 M, Tumor Site: Type of Lesion: NASAL CAVITY: TUMOR) was “active; positive”.
With `C/C=C/c1ccc(OC)cc1` the carcinogen call (Species: MOUSE, Strain/Sex: B6C3F1/MALE, Route: INTRAPERITONEAL, Dose: 0, 0.5 UMOL/G BW ONCE (STUDY DURATION: 10-11 MONTHS)) was “inactive; negative”, the carcinogen call (Species: MOUSE, Strain/Sex: CD-1/FEMALE, Route: DERMAL, Dose: 0, 5 UMOL 1X/WK FOR 3 WK BEGINNING 24 HR POST FIRST TPA DOSE (2.5 UG IN 0.1 ML ACETONE), FOLLOWED BY 2.5 UG TPA IN 0.1 M, Tumor Site: Type of Lesion: SKIN: PAPILLOMA) was “inactive; negative” and the carcinogen call (Species: RAT, Strain/Sex: SPRAGUE-DAWLEY/FEMALE, Route: ORAL, Dose: 0, 0.25, 0.5, 1% IN DIET FOR 117 WK (STUDY DURATION: 121 WK), Dose: 0, 0.25, 0.5, 1% IN DIET FOR 117 WK (STUDY DURATION: 121 WK), Tumor Site: Type of Lesion: LIVER: HEPTOCELLULAR CARCINOMA) was “active; positive”. The carcinogen call (Species: RAT, Strain/Sex: SPRAGUE-DAWLEY/MALE, Route: ORAL, Dose: 0, 0.25, 0.5, 1.0% IN DIET FOR 117 WK (STUDY DURATION: 121 WK), Dose: 0, 0.25, 0.5, 1.0% IN DIET FOR 117 WK (STUDY DURATION: 121 WK)) was “inactive; negative”.
`CCN(CC)CCCC(C)Nc1c2ccc(Cl)cc2nc2ccc(OC)cc12` (stereo not given) was tested, and the carcinogen call (Species: Mouse, Strain/Sex: CD-1/Female (23/24)/(24/24)(23/24)(22/23), Route: Intraperitoneal, Dose: 0, 10, 50, 150 mg/kg on days 8 and 15 after birth (Study duration: 52 weeks) (Test material solvent: 1% w/v carboxymethy, Dose: 0, 10, 50, 150 mg/kg on days 8 and 15 after birth (Study duration: 52 weeks) (Test material solvent: 1% w/v carboxymethy) was “inactive; negative” and the carcinogen call (Species: Mouse, Strain/Sex: CD-1/Male (32/32)/(23/24)(23/24)(25/25), Route: Intraperitoneal, Dose: 0, 10, 50, 150 mg/kg on days 8 and 15 after birth (Study duration: 52 weeks) (Test material solvent: 1% w/v carboxymethy, Dose: 0, 10, 50, 150 mg/kg on days 8 and 15 after birth (Study duration: 52 weeks) (Test material solvent: 1% w/v carboxymethy) was “inactive; negative”.
In the case of `CCCCCCCCCCCCCC(=O)ON(C(C)=O)c1ccc2c(c1)Cc1ccccc1-2`, the carcinogen call (Species: RAT, Strain/Sex: F344/MALE, Route: SUBCUTANEOUS, Dose: 10.6 UMOL IN 0.2 ML DMSO-TRIOCTANOIN 1/WK FOR 6 WK, Tumor Site: Type of Lesion: INJECTION SITE: FIBROSARCOMA OR FIBROMYOSARCOMA OR FIBROLIPOSARCOMA) is reported as “active; positive”.
